Test results from patent US20220242963A1, “B-CELL ACTIVATING CD73 ANTIBODIES” (CORVUS PHARMACEUTICALS, INC., priority 2018, published 2022).

Test system: B cells (CD19+CD3−)
Test: B cell activation in healthy donor PBMC, flow cytometry of surface markers / phospho ERK
Assay type: cell-based, human
Conditions: human B lymphocytes
Description: With reference to FIGS. 2A-2E, each group of four bars from left to right represent data for: untreated donors, donors treated with human IgG1 isotype control, donors treated with BCR stimulation, and donors treated with CPI-006. The experiments for FIGS. 2A-2E are based on healthy donor PBMC treated overnight with flow cytometry analysis of surface markers on B cells (CD19^POS CD3^NEG). These lymphocyte markers are consistent with activation of B cells as well as other antigen presenting cell populations. […] The bar graph legend from top to bottom is representative of the data bars from left to right. […] For FIG. 2H the bar graph legend from top to bottom is representative of the data bars from left to right. For FIG. 2I the legend from top to bottom is representative of the data from top to bottom. […] For each group of four bars, the legend from top to bottom are representative of the bars from left to right.
PBMC were isolated from healthy donors and incubated with bead-bound anti-IgM, CPI-006 (10 μg/mL), or human IgG1 isotype control (10 μg/mL) overnight. Flow cytometry analysis was performed with gating on B cells (CD19+CD3−) and mean fluorescence intensity (MFI) was reported for staining with antibodies to the cell surface markers CD69, CD83, and CD25, as shown in FIGS. 2A-2C. PBMC were isolated from healthy donors and incubated with CPI-006, CPI-016, human IgG1 isotype control, and anti-human CD73 antibody, clone AD2 (available from Bio-Rad Antibodies) over a range of concentrations from about 0.1 μg/mL to more than 10 μg/mL. Flow cytometry analysis was performed with gating on B cells (CD19+CD3−) and mean fluorescence intensity (MFI) is reported for antibody staining of CD69, as shown in FIG. 2F. PBMC were isolated from healthy donors and incubated overnight with bead-bound anti-IgM or CPI-006 (1 μg/mL)+/−BTK inhibitor, ibrutinib (100 nM). Flow cytometry analysis was performed with gating on B cells (CD19+CD3−) and mean fluorescence intensity (MFI) is reported for antibody staining of CD69 and CD83, as shown in FIG. 2G. PBMC were isolated from healthy donors and incubated overnight with APCP (1 μM) or CPI-006 (1 μg/mL)+/−NECA (5′-N-ethylcarboxamidoadenosine). Flow cytometry analysis was performed with gating on B cells (CD19+CD3−) and mean fluorescence intensity (MFI) is reported for antibody staining of CD69, as shown in FIGS. 2H-2I. PBMC were isolated from healthy donors and incubated with the indicated treatments for 15 minutes. Flow cytometry analysis was performed with gating on the indicated cell populations and staining of phospho ERK was evaluated, as shown in FIG. 2J.

In the case of “MEDI9447: anti-CD73 antibody described by Hay CM et al., Oncoimmunology 2016 [reference compound]”, the “direct B cell activation” value is reported as “do not show this effect”.
